Experimental data as given in paper PMC5561212, “In Vitro Micropatterned Human Pluripotent Stem Cell Test (µP-hPST) for Morphometric-Based Teratogen Screening” (Scientific Reports, 2017).
Converted amounts (≈) assume the structure as drawn. “Also recorded” adds a separate entry of the source. Read-outs that look alike come from different tables or passages of the source.

What was measured:
[1] = cited from earlier work
[2] = system: adult human dermal fibroblasts (aHDF); test: Cytotoxicity assay (MTS), general cytotoxicity; format: cell-based; settings: aHDF cells, 3 days, 25% inhibitory concentration
Protocol: (§1) A set of 30 compounds of known teratogenicity was selected to establish and validate the µP-hPST (Table 1). The compounds include equal number of non-teratogens and teratogens, and differ in chemical property and therapeutic usage. Before tested in the µP-hPSC colonies, the cytotoxicity profile of each compound was acquired. Two cell lines, hPSC line H9 and adult human dermal fibroblast line aHDF, were tested to represent embryonic cytotoxicity and general cytotoxicity of the compound respectively (Supplementary Figs S1, S2). The IC25 values, which were the 25% inhibitory concentrations, were calculated as the highest non-cytotoxic concentrations of the compound (Table 2, Fig. 1).
(§2) Human embryonic cell line H9 (WiCell Research Institute, Inc) and adult human dermal fibroblast (aHDF, Lonza) were cultured as previously described. Briefly, H9 cells were cultured in tissue culture plates coated with Matrigel^TM (354277, BD Biosciences) in mTeSR^TM1 medium (05850, StemCell^TM Technologies). Dispase (07923, StemCell^TM Technologies) treatment and mechanical scraping were applied during normal subculture. The aHDF cells was cultured in DMEM medium (10569-010, Gibco), supplemented with 10% FBS (SV30160.03, Thermo Scientific Hyclone) and 1% Pen-Strep (09367-34, Nacalai Tesque). Cells were subcultured every 5–6 days using 0.25% Trypsion-EDTA (25200-114, Gibco) to detach the cells.
(§3) The adverse effect of test compounds on cell proliferation and viability was detected using CellTiter 96® AQueous One Solution Cell Proliferation Assay (MTS, G3580, Promega). 10,000 H9 cells or 500 aHDF cells were seeded in 96-well tissue culture plates. For H9 cells, Matrigel^TM was coated before seeding. For each compound, 8 concentrations from serial 5-fold dilutions were tested besides the vehicle controls. Cells were cultured for 3 days with medium half change every day before cell viability was measured. Each drug was tested in three independent runs and its IC25 values (inhibitory concentrations which can cause 25% of reduction in cell number) were acquired by logistic regression using OriginPro 9.

hPSC = system: hPSC; parameters: method as in PMID 24123775; settings: cited from earlier work
[3] = cited from earlier work; for In vivo teratogenicity: Table 1, known teratogenicity; for In vivo teratogenicity (in words): Supplementary Tables S2, S3
[4] = system: human embryonic cell line H9; test: Cytotoxicity assay (MTS), embryonic cytotoxicity; format: cell-based; settings: H9 cells, 3 days, 25% inhibitory concentration
Protocol: as §1, §2, §3

[5] = system: µP-hPSC colonies (H9) under mesoendoderm induction; test: µP-hPST: mesoendoderm pattern disruption in µP-hPSC colonies and two-step teratogen classification; settings: for Teratogenicity in µP-hPST / Teratogenicity in µP-hPST (in words): two-step classification rule; for Mesoendoderm pattern disruption seen in T fluorescent images: 3 days of compound exposure, in words
[6] = human plasma, ref U.S. FDA website, EMA website or published journals (Supplementary Table S1)

Compound	Cmax [1, 6] [µg/mL]	IC25aHDF [2] [mg/L]	Teratogenicity in other in vitro assays (hPSC)	In vivo teratogenicity [3]	IC25H9 [4] [mg/L]	In vivo teratogenicity (in words) [3]	Teratogenicity in µP-hPST [5]	Classification in the Targeted Biomarker Assay (in words) (hPSC)	Teratogenicity in µP-hPST (in words) [5]	Mesoendoderm pattern disruption seen in T fluorescent images [5]	Defects caused in newborns [3]	Anomalies known to be induced [3]	Cmax ([1]; compounds tested previously) [µg/mL]
CC(=O)Nc1ccc(O)cc1 [Acetaminophen]	24	40 (≈ 265 µM)	NON[6]	NON	171 (≈ 1130 µM)	–	–	–	–	–	–	–	–
Nc1nc2c(ncn2COCCO)c(=O)[nH]1 [Acyclovir]	5.65	285 (≈ 1270 µM)	–	–	267 (≈ 1190 µM)	–	–	–	–	–	–	–	–
CC1(C)S[C@@H]2[C@H](NC(=O)[C@H](N)c3ccc(O)cc3)C(=O)N2[C@H]1C(=O)O [Amoxicillin]	14.4	>1000	NON[6]	NON	>1000	Non-teratogen	NON	–	–	–	–	–	–
O=C1O[C@H]([C@@H](O)CO)C(O)=C1O [Ascorbic acid]	156	63 (≈ 358 µM)	–	–	105 (≈ 596 µM)	–	NON	–	–	–	–	–	–
COc1ccccc1Oc1c(NS(=O)(=O)c2ccc(C(C)(C)C)cc2)nc(-c2ncccn2)nc1OCCO [Bosentan]	8.17	19.9 (≈ 36.1 µM)	NON[6]	TER	43.8 (≈ 79.4 µM)	Teratogen	TER	misclassified	correctly classify	–	–	–	–
CS(=O)(=O)OCCCCOS(C)(=O)=O [Busulfan]	1.22	19.2 (≈ 78 µM)	TER[6]	TER	0.5 (≈ 2.03 µM)	Teratogen	TER	–	–	much smaller and concentrated mesoendoderm patterns were observed	–	–	–
Cn1c(=O)c2c(ncn2C)n(C)c1=O [Caffeine]	10	129 (≈ 664 µM)	–	–	85.4 (≈ 440 µM)	–	–	–	–	–	–	–	–
NC(=O)N1c2ccccc2C=Cc2ccccc21 [Carbamazepine]	11	28 (≈ 119 µM)	TER[6]	TER	21 (≈ 88.9 µM)	Teratogen	TER	–	detect the teratogenic effects	decrease both cell differentiation and migration	neural tube defects, cardiovascular and urinary tract anomalies, and cleft palate	–	–
CN(C)CCOC(c1ccccc1)c1ccccc1 [Diphenhydramine]	–	31.4 (≈ 123 µM)	–	–	2.4 (≈ 9.4 µM)	–	NON	–	–	–	–	–	–
O=C1NC(=O)C(c2ccccc2)(c2ccccc2)N1 [Diphenylhydantoin]	20	140 (≈ 555 µM)	NON[6]	TER	56 (≈ 222 µM)	Teratogen	TER	misclassified	correctly classify; also recorded: detect the teratogenic effects	slow down or prevent mesoendoderm cell migration	–	orofacial, limb, cardiovascular and neurobehavioral anomalies	–
CN(C)CCOC(C)(c1ccccc1)c1ccccn1 (stereo not shown) [Doxylamine]	0.12	45 (≈ 166 µM)	–	–	87 (≈ 322 µM)	–	NON	–	–	–	–	–	–
Nc1nc2ncc(CNc3ccc(C(=O)N[C@@H](CCC(=O)O)C(=O)O)cc3)nc2c(=O)[nH]1 [Folic acid]	0.27	894 (≈ 2030 µM)	–	–	888 (≈ 2010 µM)	–	NON	–	–	–	–	–	–
COc1cc2ncnc(Nc3ccc(F)c(Cl)c3)c2cc1OCCCN1CCOCC1 [Gefitinib]	0.93	1.66 (≈ 3.71 µM)	–	–	4.6 (≈ 10.3 µM)	–	TER	–	–	–	–	–	–
Cc1ccc(NC(=O)c2ccc(CN3CCN(C)CC3)cc2)cc1Nc1nccc(-c2cccnc2)n1 [Imatinib]	1.56	2.7 (≈ 5.47 µM)	–	–	19.5 (≈ 39.5 µM)	–	–	–	–	–	–	–	–
NNC(=O)c1ccncc1 [Isoniazid]	3.09	488 (≈ 3560 µM)	NON[6]	NON	370 (≈ 2700 µM)	–	NON	–	–	–	–	–	–
CCOC(=O)N1CCC(=C2c3ccc(Cl)cc3CCc3cccnc32)CC1 [Loratadine]	–	3.2 (≈ 8.36 µM)	NON[6]	NON	24 (≈ 62.7 µM)	–	–	–	–	–	–	–	–
CC[C@H](C)C(=O)O[C@H]1C[C@@H](C)C=C2C=C[C@H](C)[C@H](CC[C@@H]3C[C@@H](O)CC(=O)O3)[C@H]21 [Lovastatin]	0.01	0.68 (≈ 1.68 µM)	NON[6]	TER	–	Teratogen	TER	misclassified	correctly classify	promote cell migration	–	–	–
Cn1cc[nH]c1=S [Methimazole]	–	>1000	–	TER	252 (≈ 2210 µM)	Teratogen	TER	–	–	promote mesoendoderm differentiation while decrease collective cell migration	–	–	–
CCN(CC)CCNC(=O)c1cc(Cl)c(N)cc1OC [Metoclopramide]	0.04	154 (≈ 514 µM)	NON[6]	NON	162 (≈ 540 µM)	Non-teratogen	NON	–	–	–	–	–	–
CC1(C)S[C@@H]2[C@H](NC(=O)Cc3ccccc3)C(=O)N2[C@H]1C(=O)O [Penicillin G]	–	–	–	–	–	–	–	–	Non-teratogen	–	–	–	400
N[C@@H](CC(=O)N1CCn2c(nnc2C(F)(F)F)C1)Cc1cc(F)c(F)cc1F [Sitagliptin]	0.39	77.1 (≈ 189 µM)	NON[6]	NON	359 (≈ 881 µM)	–	NON	–	–	–	–	–	–
